# Laboratory results published in US20230286960A1, “ALLOSTERIC CHROMENONE INHIBITORS OF PHOSPHOINOSITIDE 3-KINASE (PI3K) FOR THE TREATMENT OF DISEASE” (Petra Pharma Corporation, priority 2020, published 2023).
# Tests used:
# [1] = molecular target: human full length PIK3CA wild-type (p110α/p85α) (Homo sapiens (Human), UniProt P42336); experiment: PI3K-alpha kinase (PIK3CA) activity, wild-type, Transcreener ADP2 FI assay; details: PI3K-α (PIK3CA) biochemical
# Protocol: (§1) PI3K-Alpha Kinase (PIK3CA) Activity, Wild-Type and H1047R Mutant and Determining IC50 Values for Inhibitors
# (§2) Recombinant, catalytically active human full length PIK3KA Wild-type and H1047R mutant were purchased as 1:1 complex of N-terminal 6× his tagged p110 ? (catalytic) and untagged p85 ? (regulatory subunit) from EMD Millipore Sigma (cat. no. 14-602M and 14-792M, respectively). The enzyme stocks were diluted to 5× stocks in buffer (20 mM HEPES pH 7.4, 100 mM NaCl, 0.5 mM EGTA, 0.01% triton-x-100) just before use. PIP2diC8 (Avanti Polar Lipids Inc., cat. no. 850185) or phosphoinositol-4,5-bisphosphate with phosphoserine (PIP2:PS) membrane (Thermo Fisher Scientific, cat. no. PV5100) was used as lipid substrates. PIP2diC8 lyophilized powder and PIP2:PS (1:19) membrane stock (1 mM in PIP2) were separately dissolved in milliQ water to a concentration of 250 uM and stored in −20° C. 10 mM stocks of compounds were serially diluted (3×) in neat DMSO and stored in a dessicator at room temperature. 5× compound stocks in 25% DMSO were prepared fresh from neat DMSO stocks.
# (§3) Wild-type (WT) and H1047R mutant protein, along with buffer components (except ATP), were incubated with or without compound at 27° C. for 1 h. After incubation, the reaction was initiated by the addition of 5 uL of 125 uM ATP. A typical assay mixture (25 uL) comprised 40 mM HEPES buffer, pH 7.4, 25 mM MgCl2, 0.01% v/v triton-X-100, 5% v/v DMSO, 20 mM NaCl, 1-5 nM wt or H1047R, 25 uM ATP, and 50 uM PIP2diC8 or PIP2 in membrane. The reaction was allowed to proceed until about […] (2.5 uM ADP) after which time, 10 uL of reaction mixture was quenched with 25 uL of transcreener reagent (Transcreener ADP2 FI assay kit, BellBrook labs, Cat. No. 3013). The contents were incubated at rt for 1 h and fluorescence was measured using a plate reader (Paradigm, Molecular Devices). The same assay was also run at pH 6.0 or 6.4 using MOPS buffer (Fisher BioReagents, CAS 1132-61-2). A calibration curve was generated under identical buffer conditions with varying ADP amounts. Using that, the observed fluorescence was converted to uM ADP. A plot between [ADP] and log[I] yielded the dose-response curves that enabled the calculation of IC50s.
# [2] = molecular target: human full length PIK3CA H1047R mutant (p110α/p85α) (Homo sapiens (Human), UniProt P42336, H1047R); experiment: PI3K-alpha kinase (PIK3CA) activity, H1047R mutant, Transcreener ADP2 FI assay; details: PI3K-α (PIK3CA) biochemical
# Protocol: as §1, §2, §3
# Sequence of human full length PIK3CA H1047R mutant (p110α/p85α) (P42336 whole entry H1047R): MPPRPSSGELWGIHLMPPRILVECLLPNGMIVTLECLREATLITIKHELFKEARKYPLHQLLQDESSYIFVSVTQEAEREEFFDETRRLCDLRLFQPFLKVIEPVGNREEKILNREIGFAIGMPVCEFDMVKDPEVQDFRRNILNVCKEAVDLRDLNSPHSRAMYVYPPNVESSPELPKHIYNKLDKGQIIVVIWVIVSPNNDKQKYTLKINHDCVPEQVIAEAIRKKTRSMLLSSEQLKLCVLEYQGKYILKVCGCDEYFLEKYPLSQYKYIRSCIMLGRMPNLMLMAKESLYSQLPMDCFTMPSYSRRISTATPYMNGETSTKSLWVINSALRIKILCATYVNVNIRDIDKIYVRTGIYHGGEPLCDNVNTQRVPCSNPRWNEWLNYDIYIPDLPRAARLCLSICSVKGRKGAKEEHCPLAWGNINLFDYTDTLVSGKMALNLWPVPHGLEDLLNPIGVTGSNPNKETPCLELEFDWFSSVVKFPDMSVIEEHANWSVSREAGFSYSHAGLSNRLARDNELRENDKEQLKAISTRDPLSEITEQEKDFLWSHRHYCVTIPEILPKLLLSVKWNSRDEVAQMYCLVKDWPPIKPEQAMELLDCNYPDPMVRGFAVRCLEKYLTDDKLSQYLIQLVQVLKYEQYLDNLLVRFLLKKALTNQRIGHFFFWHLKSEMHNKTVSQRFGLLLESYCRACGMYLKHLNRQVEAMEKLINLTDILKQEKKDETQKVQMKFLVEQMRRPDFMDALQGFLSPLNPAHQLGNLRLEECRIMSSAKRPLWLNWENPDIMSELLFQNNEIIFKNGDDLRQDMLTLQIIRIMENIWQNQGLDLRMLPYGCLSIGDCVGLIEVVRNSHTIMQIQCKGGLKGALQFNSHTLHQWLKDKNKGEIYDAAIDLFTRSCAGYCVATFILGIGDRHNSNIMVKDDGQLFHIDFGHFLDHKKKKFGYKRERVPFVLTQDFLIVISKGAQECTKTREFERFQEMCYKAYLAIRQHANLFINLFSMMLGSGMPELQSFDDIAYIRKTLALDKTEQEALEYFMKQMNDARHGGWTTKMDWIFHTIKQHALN
# Sequence of human full length PIK3CA H1047R mutant (p110α/p85α) (P27986 whole entry partner): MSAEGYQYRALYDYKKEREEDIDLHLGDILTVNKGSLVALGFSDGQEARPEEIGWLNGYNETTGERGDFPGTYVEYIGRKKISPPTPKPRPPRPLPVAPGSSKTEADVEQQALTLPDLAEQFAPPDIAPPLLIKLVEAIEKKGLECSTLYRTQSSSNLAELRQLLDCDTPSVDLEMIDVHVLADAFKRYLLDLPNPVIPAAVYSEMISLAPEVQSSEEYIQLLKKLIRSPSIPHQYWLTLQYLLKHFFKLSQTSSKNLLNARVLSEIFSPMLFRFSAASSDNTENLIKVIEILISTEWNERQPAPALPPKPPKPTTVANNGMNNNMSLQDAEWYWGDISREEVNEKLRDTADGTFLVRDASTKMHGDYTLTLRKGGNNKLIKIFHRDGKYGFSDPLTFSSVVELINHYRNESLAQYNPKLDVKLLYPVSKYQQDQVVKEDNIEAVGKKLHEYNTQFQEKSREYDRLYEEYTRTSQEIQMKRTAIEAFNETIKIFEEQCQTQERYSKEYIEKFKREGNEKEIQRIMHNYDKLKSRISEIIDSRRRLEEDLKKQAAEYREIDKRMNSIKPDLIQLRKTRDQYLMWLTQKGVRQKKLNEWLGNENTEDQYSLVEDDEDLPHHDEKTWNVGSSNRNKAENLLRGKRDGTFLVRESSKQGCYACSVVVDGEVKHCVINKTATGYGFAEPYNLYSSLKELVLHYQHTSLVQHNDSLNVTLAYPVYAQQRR
# Sequence of human full length PIK3CA wild-type (p110α/p85α) (P42336 whole entry): as the sequence (P42336 whole entry H1047R) above, with R1047H counted along it
# Sequence of human full length PIK3CA wild-type (p110α/p85α) (P27986 whole entry partner): as the sequence (P27986 whole entry partner) above
Structure (SMILES),IC50 [1] [µM],IC50 [2] [µM]
"COc1cc(C(=O)O)c(NC(C)c2cc(C)cc3c(=O)cc(N4CCC(C)(C)CC4)oc23)cc1F (stereo not drawn) [Example 1, 2-[1-[2-(4,4-Dimethyl-1-piperidyl)-6-methyl-4-oxo-chromen-8-yl]ethylamino]-4-fluoro-5-methoxy-benzoic acid]",> 10,
"CONC(=O)c1ccccc1NC(C)c1cc(C)cc2c(=O)cc(N3CCC(C)(C)CC3)oc12 (stereo not drawn) [Example 19, 2-[1-[2-(4,4-Dimethyl-1-piperidyl)-6-methyl-4-oxo-chromen-8-yl]ethylamino]-N-methoxy-benzamide]",,< 0.5
"Cc1cc(C(C)Nc2ccccc2-c2nnn[nH]2)c2oc(N3CCC(C)(C)CC3)cc(=O)c2c1 (stereo not drawn) [Example 20, 2-(4,4-Dimethyl-1-piperidyl)-6-methyl-8-[1-[2-(1H-tetrazol-5-yl)anilino]ethyl]chromen-4-one]",,< 0.5
"Cc1cc(C(C)Nc2ccsc2C(=O)O)c2oc(N3CCC(C)(C)CC3)cc(=O)c2c1 (stereo not drawn) [Example 39, 3-[1-[2-(4,4-Dimethyl-1-piperidyl)-6-methyl-4-oxo-chromen-8-yl]ethylamino]thiophene-2-carboxylic acid]",> 10,
"CCc1c(N2CCC(C)(C)CC2)oc2c(C(C)Nc3ccccc3C(=O)O)cc(C)cc2c1=O (stereo not drawn) [Example 55, 2-[1-[2-(4,4-dimethyl-1-piperidyl)-3-ethyl-6-methyl-4-oxo-chromen-8-yl]ethylamino]benzoic acid]",,< 0.5
"Cc1cc(C(C)Nc2ccccc2C(=O)O)c2oc(N3CCCC4(CNC(=O)C4)C3)cc(=O)c2c1 (stereo not drawn) [Example 61, 2-[1-[6-Methyl-4-oxo-2-(3-oxo-2,7-diazaspiro[4.5]decan-7-yl)chromen-8-yl]ethylamino]benzoic acid]",> 10,
"Cc1cc(C(C)Nc2ccccc2C(=O)O)c2oc(N3CCCC(C)(C)C3)cc(=O)c2c1 (stereo not drawn) [Example 65, 2-[1-[2-(3,3-Dimethyl-1-piperidyl)-6-methyl-4-oxo-chromen-8-yl]ethylamino]benzoic acid]",,< 0.5
"Cc1cc(C(C)Nc2ccccc2C(=O)O)c2oc(N3CC(N(C)C)C3)cc(=O)c2c1 (stereo not drawn) [Example 68, 2-[1-[2-[3-(Dimethylamino)azetidin-1-yl]-6-methyl-4-oxo-chromen-8-yl]ethylamino]benzoic acid]",> 10,
"Cc1cc(C(C)Nc2ccccc2C(=O)O)c2oc(N3CC4CCC(C3)O4)cc(=O)c2c1 (stereo not drawn) [Example 82, 2-[1-[6-Methyl-2-(8-oxa-3-azabicyclo[3.2.1]octan-3-yl)-4-oxo-chromen-8-yl]ethylamino]benzoic acid]",> 10,
"Cc1cc(C(C)Nc2ccccc2C(=O)O)c2oc(N3CC4(CCCCC4)C3)cc(=O)c2c1 (stereo not drawn) [Example 88, 2-[1-[2-(2-Azaspiro[3.5]nonan-2-yl)-6-methyl-4-oxo-chromen-8-yl]ethylamino]benzoic acid]",,< 0.5
"Cc1cc(C(C)Nc2ccccc2C(=O)O)c2oc(N3Cc4ccc(F)cc4C3)cc(=O)c2c1 (stereo not drawn) [Example 105, 2-[1-[2-(5-Fluoroisoindolin-2-yl)-6-methyl-4-oxo-chromen-8-yl]ethylamino]benzoic acid]",,< 0.5
"Cc1cc(C(C)Nc2ccccc2C(=O)O)c2oc(N3CCS(=O)(=O)CC3)cc(=O)c2c1 (stereo not drawn) [Example 117, 2-[1-[2-(1,1-Dioxo-1,4-thiazinan-4-yl)-6-methyl-4-oxo-chromen-8-yl]ethylamino]benzoic acid]",> 10,
"CCNc1cc(=O)c2cc(C)cc(C(C)Nc3ccccc3C(=O)O)c2o1 (stereo not drawn) [Example 126, 2-[1-[2-(Ethylamino)-6-methyl-4-oxo-chromen-8-yl]ethylamino]benzoic acid]",> 10,
"Cc1cc(C(C)Nc2ccccc2C(=O)O)c2oc(N3CC4CC(C4)C3)cc(=O)c2c1 (stereo not drawn) [Example 177, 2-[1-[2-(3-Azabicyclo[3.1.1]heptan-3-yl)-6-methyl-4-oxo-chromen-8-yl]ethylamino]benzoic acid 2,2,2-trifluoroacetic acid]",,< 0.5

# Other lines, results leading:
IC50 [1] [µM],IC50 [2] [µM],Structure (SMILES)
> 10,,"Cc1cc(C(C)Nc2ccccc2C(=O)O)c2oc(N3CCn4cnnc4C3)cc(=O)c2c1 (stereo not drawn) [Example 163, 2-[1-[2-(6,8-Dihydro-5H-[1,2,4]triazolo[4,3-a]pyrazin-7-yl)-6-methyl-4-oxo-chromen-8-yl]ethylamino]benzoic acid]"
> 10,,Cc1cc(C(C)Nc2ccccc2C(=O)O)c2oc(NC34CC5CC(CC(CO)(C5)C3)C4)cc(=O)c2c1 (stereo not drawn) [Example 169]
,< 0.5,"Cc1cc(C(C)Nc2ccccc2C(=O)O)c2oc(N3CCn4cccc4C3)cc(=O)c2c1 (stereo not drawn) [Example 171, 2-[1-[2-(3,4-Dihydro-1H-pyrrolo[1,2-a]pyrazin-2-yl)-6-methyl-4-oxo-chromen-8-yl]ethylamino]benzoic acid]"
,< 0.5,"Cc1cc(C(C)Nc2ccccc2C(=O)O)c2oc(N3CC(C(C)(F)F)C3)cc(=O)c2c1 (stereo not drawn) [Example 189, 2-[1-[2-[3-(1,1-Difluoroethyl)azetidin-l-yl]-6-methyl-4-oxo-chromen-8-yl]ethylamino]benzoic acid 2,2,2-trifluoroacetic acid]"
,< 0.5,"Cc1cc(C(C)Nc2ccccc2C(=O)O)c2oc(N3CCc4ccccc4C3)cc(=O)c2c1 (stereo not drawn) [Example 233, 2-[1-[2-(3,4-Dihydro-1H-isoquinolin-2-yl)-6-methyl-4-oxo-chromen-8-yl]ethylamino]benzoic acid]"
> 10,,"COc1ccc(NC(C)c2cc(C)cc3c(=O)cc(N4Cc5ccccc5C4)oc23)c(C(=O)O)n1 (stereo not drawn) [Example 237, 3-[1-(2-Isoindolin-2-yl-6-methyl-4-oxo-chromen-8-yl)ethylamino]-6-methoxy-pyridine-2-carboxylic acid]"
,< 0.5,"Cc1cc(C(C)Nc2sc(Cl)nc2C(=O)O)c2oc(N3Cc4ccccc4C3)cc(=O)c2c1 (stereo not drawn) [Example 245, 2-Chloro-5-[1-(2-isoindolin-2-yl-6-methyl-4-oxo-chromen-8-yl)ethylamino]thiazole-4-carboxylic acid 2,2,2-trifluoroacetic acid]"
,< 0.5,"Cc1cc([C@@H](C)Nc2ccccc2C(=O)O)c2oc(N3CCC(C#N)(c4ccccc4)CC3)c(C)c(=O)c2c1 [Example 288, 2-[[(1R)-1-[2-(4-Cyano-4-phenyl-1-piperidyl)-3,6-dimethyl-4-oxo-chromen-8-yl]ethyl]amino]benzoic acid]"
,< 0.5,"Cc1cc([C@@H](C)Nc2ccccc2C(=O)O)c2oc(N3CC4(CCC4(F)F)C3)c(C)c(=O)c2c1 [Example 289, 2-[[(1R)-1-[2-(7,7-Difluoro-2-azaspiro[3.3]heptan-2-yl)-3,6-dimethyl-4-oxo-chromen-8-yl]ethyl]amino]benzoic acid]"
,< 0.5,"Cc1cc(C(C)Nc2ccc(Cl)nc2C(=O)O)c2oc(N3Cc4ccc(F)cc4C3)cc(=O)c2c1 (stereo not drawn) [Example 297, 6-Chloro-3-[1-[2-(5-fluoroisoindolin-2-yl)-6-methyl-4-oxo-chromen-8-yl]ethylamino]pyridine-2-carboxylic acid]"
,< 0.5,"Cc1cc(C(C)Nc2ccc(Cl)nc2C(=O)O)c2oc(N3Cc4ccc5c(c4C3)OCO5)cc(=O)c2c1 (stereo not drawn) [Example 299, 6-Chloro-3-[1-[2-(6,8-dihydro-[1,3]dioxolo[4,5-e]isoindol-7-yl)-6-methyl-4-oxo-chromen-8-yl]ethylamino]pyridine-2-carboxylic acid]"
,< 0.5,"Cc1cc(C(C)Nc2ccc(Cl)nc2C(=O)O)c2oc(N3CCC4(CC3)CC4)c(C)c(=O)c2c1 (stereo not drawn) [Example 302, 3-[1-[2-(6-Azaspiro[2.5]octan-6-yl)-3,6-dimethyl-4-oxo-chromen-8-yl]ethylamino]-6-chloro-pyridine-2-carboxylic acid]"
,< 0.5,"Cc1cc([C@@H](C)Nc2ccccc2C(=O)O)c2oc(N3CCCCC3)cc(=O)c2c1 [Example 376, 2-[[(1R)-1-[6-Methyl-4-oxo-2-(1-piperidyl)chromen-8-yl]ethyl]amino]benzoic acid]"
,< 0.5,"CC(Nc1ccccc1C(=O)O)c1cc(C(F)(F)F)cc2c(=O)cc(N3CCC(F)(F)CC3)oc12 (stereo not drawn) [Example 396, 2-[1-[2-(4,4-Difluoro-1-piperidyl)-4-oxo-6-(trifluoromethyl)chromen-8-yl]ethylamino]benzoic acid 2,2,2-trifluoroacetic acid]"
,< 0.5,"CC(Nc1ccccc1C(=O)O)c1cc(F)cc2c(=O)cc(N3CCC4(CC3)CC4)oc12 (stereo not drawn) [Example 398, 2-[1-[2-(6-Azaspiro[2.5]octan-6-yl)-6-fluoro-4-oxo-chromen-8-yl]ethylamino]benzoic acid 2,2,2-trifluoroacetic acid]"
,< 0.5,CC(Nc1ccccc1C(=O)O)c1cc(F)cc2c(=O)cc(N3CCC(F)(F)CC3)oc12 (stereo not drawn) [Example 399]
